Measured values taken from patent publication US8575201B2 (Boehringer Ingelheim International GmbH, priority 2010, dated 2013).

Columns and labels:
[1] = system: biomarkers for myocardial infarction risk; conditions: clinical trial; cited from earlier work
[2] = molecular target: recombinant human FLAP protein (Homo sapiens (Human), UniProt P20292); assay: FLAP binding assay (Scintillation Proximity Assay, displacement of [125I]L-691,831); conditions: read-out: FLAP SPA IC50
Method in brief: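 Scintillation proximity displacement of an iodinated (125I) FLAP inhibitor by test compounds, using 100,000×g membrane fraction from lysed cells. Final beads 200 μg/well and protein 5 μg/well; plates shaken 2 h before reading.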

[3] = system: synthesis of LTB4 in human whole blood; assay: Human whole blood LTB4 production inhibition assay; assay type: cell-based; conditions: calcimycin stimulated, read-out: hWB LTB4 IC50
Method in brief: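 Readout: plasma LTB4 by antibody-based HTRF. Compound added to heparinized human whole blood, 15 min 37° C; calcimycin 20 μM final (PBS pH 7.4), 30 min 37° C; spun 1500×g 5 min, plasma taken.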

proteinuria = conditions: clinical trial, human glomerulonephritis; cited from earlier work
atherosclerotic plaque [4] = conditions: oral dosing, high-fat diet from 2 to 6 months of age; cited from earlier work
atherosclerotic plaque [5] = conditions: infusion, treated for four weeks; cited from earlier work

Sequence of recombinant human FLAP protein (P20292 whole entry): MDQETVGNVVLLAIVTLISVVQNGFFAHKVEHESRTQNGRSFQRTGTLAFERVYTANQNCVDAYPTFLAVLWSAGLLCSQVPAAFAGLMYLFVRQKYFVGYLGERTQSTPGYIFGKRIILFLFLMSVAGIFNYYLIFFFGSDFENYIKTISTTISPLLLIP

| IC50 [2] [nM] | IC50 [3] [nM] | SMILES | also measured |
| --- | --- | --- | --- |
| – | – | O=C(O)[C@@H](c1ccc(OCc2ccc3ccccc3n2)cc1)C1CCCC1 [DG-031] | effect on biomarkers for myocardial infarction risk [1]: dose-dependent suppression of several biomarkers |
| 830 | 620 | Cc1nc(N)ncc1-c1ccc(C2(c3noc(-c4cnn(CC(C)(C)O)c4)n3)CCC2)cn1 [Example 175, 1-[4-(3-{1-[6-(2-Amino-4-methyl-pyrimidin-5-yl)-pyridin-3-yl]-cyclobutyl}-[1,2,4]oxadiazol-5-yl)-pyrazol-1-yl]-2-methyl-propan-2-ol] | – |
| 23 | 73 | CNc1cnc(-c2ccc(C3(c4noc(-c5cnn(C6COC6)c5)n4)CCC3)cn2)cn1 [Example 176, Methyl-[5-(5-{1-[5-(1-oxetan-3-yl-1H-pyrazol-4-yl)-[1,2,4]oxadiazol-3-yl]-cyclobutyl}-pyridin-2-yl)-pyrazin-2-yl]-amine] | – |
| 32 | 160 | CNc1cnc(-c2ccc(C3(c4noc(-c5cnn(CC(C)(C)O)c5)n4)CCC3)cn2)cn1 [Example 177, 2-Methyl-1-[4-(3-{1-[6-(5-methylamino-pyrazin-2-yl)-pyridin-3-yl]-cyclobutyl}-[1,2,4]oxadiazol-5-yl)-pyrazol-1-yl]-propan-2-ol] | – |
| – | – | CC(C)(C)Sc1c(CC(C)(C)C(=O)O)n(Cc2ccc(Cl)cc2)c2ccc(OCc3ccc4ccccc4n3)cc12 [MK-591] | effect on proteinuria (proteinuria): reduce proteinuria |
| – | – | CC(C)c1ccc2c(c1)c(SC(C)(C)C)c(CC(C)(C)C(=O)O)n2Cc1ccc(Cl)cc1 [MK-886] | decrease in plaque coverage in the aorta (atherosclerotic plaque [4]): 56%; decrease in plaque coverage in the aortic root (atherosclerotic plaque [4]): 43%; decrease in plaque area in the aortic root (atherosclerotic plaque [5]): ~40% |
